Results as given in patent US7446210B2, “Factor Xa compounds” (Janssen Pharmaceutica N.V., priority 2004, dated 2008).
Counter-ions that a name gives are not always drawn. Like-named read-outs stand apart in the source and are kept apart here. One block for each molecule: values may come before it.

Tests used:
Factor Xa [1] = target: T1, Factor Xa (Homo sapiens, UniProt P00742); assay: In vitro inhibition of purified enzymes, Ki determination: Factor Xa (hydrolysis of S-2765); type: biochemical; design: purchased Enzyme Research Laboratories (South Bend, Ind.); conditions: purified activated human Factor X, substrate S-2765, 37° C., pH 7.5; read-out: KI FXa
T1 sequence (P00742 235-488 limits assumed): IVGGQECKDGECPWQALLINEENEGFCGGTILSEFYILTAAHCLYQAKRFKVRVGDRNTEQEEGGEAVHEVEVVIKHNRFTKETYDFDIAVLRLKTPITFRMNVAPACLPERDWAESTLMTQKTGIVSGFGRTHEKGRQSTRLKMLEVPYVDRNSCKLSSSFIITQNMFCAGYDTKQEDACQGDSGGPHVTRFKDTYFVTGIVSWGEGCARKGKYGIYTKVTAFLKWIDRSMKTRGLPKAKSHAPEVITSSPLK
T1 sequence (P00742 41-179 partner limits assumed): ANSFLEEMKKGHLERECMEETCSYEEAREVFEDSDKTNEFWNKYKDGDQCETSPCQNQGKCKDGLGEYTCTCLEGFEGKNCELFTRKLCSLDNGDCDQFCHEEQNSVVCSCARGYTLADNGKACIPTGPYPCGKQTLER
From the text: (§1) Reagents: All buffer salts were obtained from Sigma Chemical Company (St. Louis, Mo.), and were of the highest purity available. The enzyme substrate, S-2765 (Z-D-Arg-Gly-Arg-p-nitroanilide) was obtained from DiaPharma (West Chester, Ohio). N-succinyl-Ala-Ala-Pro-Arg-p-nitroanilide (BACHEM L-1720) was obtained from BACHEM (King of Prussia, Pa.). N-p-Tosyl-Gly-Pro-Lys-p-nitroanilide (Sigma T6140), N-succinyl-Ala-Ala-Pro-Phe-p-nitroanilide (Sigma S7388), N-CBZ-Val-Gly-Arg-p-nitroanilide (Sigma C7271) was obtained from Sigma and N-succinyl-Ala-Ala-Pro-Val-p-nitroanilide (BACHEM L-1770) was obtained from BACHEM (King of Prussia, Pa.).
(§2) Human α-thrombin and human Factor Xa were obtained from Enzyme Research Laboratories (South Bend, Ind.). Human trypsin was obtained from Calbiochem (La Jolla, Calif.). Human plasmin was obtained from Enzyme Research Laboratories (South Bend, Ind.). Bovine a-chymotrypsin (Sigma C4129) and human kidney cell urokinase (Sigma U5004) was obtained from Sigma. Human leukocyte elastase was obtained from Elastin Products (Pacific, Mo.).
(§3) Ki Determinations: All assays are based on the ability of the test compound to inhibit the enzyme-catalyzed hydrolysis of a peptide p-nitroanilide substrate. In a typical Ki determination, substrate is prepared in DMSO, and diluted into an assay buffer consisting of 50 mM HEPES, pH 7.5, 200 mM NaCl, 0.05% n-octyl b-d-glucopyranoside. The final concentrations for each of the substrates are listed below. In general, substrate concentrations are lower than the experimentally determined value for Km. Test compounds are prepared as 10 mM solutions in DMSO. Dilutions are prepared in DMSO yielding 7 final concentrations encompassing a 200-fold concentration range. Enzyme solutions are prepared at the concentrations listed below in assay buffer.
(§4) Reactions were initiated by the addition of a […] aliquot of enzyme and the absorbance increase at 405 nm is recorded for 15 minutes. Data corresponding to less than 10% of the total substrate hydrolysis were used in the calculations. The ratio of the velocity (rate of change in absorbance as a function of time) for a sample containing no test compound is divided by the velocity of a sample containing test compound, and is plotted as a function of test compound concentration. The data are fit to a linear regression, and the value of the slope of the line calculated. The inverse of the slope is the experimentally determined apparent Ki value (Ki app). The Ki is calculated from the Ki app using the Ki factor specific for the assay, where Ki=Ki app×Ki factor, or Ki=Ki app×(1/ (1+[S]/Km)).
Substrate solutions were prepared at a concentration of 107 mM in assay buffer. Final DMSO concentration was 3.3%. Purified activated human Factor X was diluted into assay buffer to a concentration of 16 nM. Final reagent concentrations were: [Factor Xa]=0.53 nM, [S-2765]=100 mM.

human α-thrombin = target: T2, human α-thrombin (Homo sapiens, UniProt P00734); assay: In vitro inhibition of purified enzymes, Ki determination: thrombin (hydrolysis of N-succinyl-Ala-Ala-Pro-Arg-p-nitroanilide); type: biochemical; conditions: substrate N-succinyl-Ala-Ala-Pro-Arg-p-nitroanilide, 37° C., pH 7.5
T2 construct: Purified human a-thrombin was diluted into assay buffer; purchased Enzyme Research Laboratories (South Bend, Ind.)
From the text: as §1, §2, §3, §4
Thrombin: Thrombin activity was assessed as the ability to hydrolyze the substrate N-succinyl-Ala-Ala-Pro-Arg-p-nitroanilide (Km=320 mM, Ki factor=0.76). Substrate solutions were prepared at a concentration of 107 mM in assay buffer. Final DMSO concentration was 4.3%. Purified human a-thrombin was diluted into assay buffer to a concentration of 33 nM. Final reagent concentrations were: [thrombin]=1.1 nM, [substrate N-succinyl-Ala-Ala-Pro-Arg-p-nitroanilide]=100 mM.

human trypsin = target: T3, human trypsin; assay: In vitro inhibition of purified enzymes, Ki determination: trypsin (hydrolysis of S-2765); type: biochemical; conditions: substrate S-2765, 37° C., pH 7.5
T3 construct: Purified human trypsin was diluted into assay buffer to a concentration of 10 nM
From the text: as §1, §2, §3, §4
Trypsin: Trypsin activity was assessed as the ability to hydrolyze the substrate S-2765 (Z-D-Arg-Gly-Arg-p-nitroanilide, Km=61 mM, Ki factor=0.50). Substrate solutions were prepared at a concentration of 64 mM in assay buffer. Final DMSO concentration was 3.3%. Purified human trypsin was diluted into assay buffer to a concentration of 10 nM. Final reagent concentrations were: [Trypsin]=0.33 nM, [S-2765]=60 mM.

Factor Xa [2] = target: T1, Factor Xa; conditions: background statement; cited from earlier work

Molecule: COc1cccc(-n2nc(C)c3ccc(-c4ccc(N5CCCCC5=O)cc4)c(F)c32)c1 [Example 4, 1-{4-[7-fluoro-1-(3methoxy-phenyl)-3-methyl-1H-indazol-6-yl]-phenyl}-piperidin-2-one]
Ki (Factor Xa [1]): 660 nM

Molecule: Cc1nn(-c2cccc(CN)c2)c2c(F)c(-c3ccc(N4CCCCC4=O)cc3)ccc12 [Example 6, 1-{4-[1-(3-Aminomethyl-phenyl)7-fluoro-1-3-methyl-1H-indazol-6-yl]-phenyl}-piperidin-2-one]
Ki (human α-thrombin): > 15200 nM | Ki (human trypsin): > 10000 nM | Ki (Factor Xa [1]): 120 nM

Molecule: Cc1nn(-c2cccc(CN)c2)c2c(F)c(-c3ccc(N4CCCC4=O)cc3)ccc12 [Example 7, 1-{4-[1-(3-Aminomethyl-phenyl)-7-fluoro-1-3-methyl-1H-indazol-6-yl]-phenyl}-pyrolidin-2-one]
Ki (human α-thrombin): > 15200 nM | Ki (human trypsin): 700 nM | Ki (Factor Xa [1]): 220 nM

Molecule: Cc1nn(-c2cccc(CN)c2)c2c(F)c(-c3ccc(C#Cc4ccc5nc(N)sc5c4)cc3)ccc12 [Example 15, 6{4-1-(3-Aminomethyl-phenyl)-7-fluoro-3-methyl-1H-indazol]-phenylethynyl-benzothiazol-2-ylamine]
Ki (human α-thrombin): > 15200 nM | Ki (human trypsin): 1590 nM | Ki (Factor Xa [1]): 2820 nM

Molecule: Cc1nn(-c2ccc3onc(N)c3c2)c2c(F)c(-c3ccc(-n4ccccc4=O)cc3F)ccc12 [Example 25, 1-{4-[1-(3-Amino-benzo[a]isoxazol-5-yl)-7-fluoro-3-methyl-1H-indazol-6-yl]-3-fluoro-phenyl}-1H-pyridin-2-one]
Ki (human α-thrombin): > 15200 nM | Ki (human trypsin): > 10000 nM | Ki (Factor Xa [1]): 40 nM

Molecule: Cc1nn(-c2cccc(CN)c2)c2c(F)c(-c3ccc(N(C)c4ccncc4)cc3F)ccc12 [Example 35]
Ki (human α-thrombin): > 15200 nM | Ki (human trypsin): 2900 nM | Ki (Factor Xa [1]): 33 nM

Molecule: antistasin [ATS]
Ki (Factor Xa [2]): 0.05 nM

Molecule: tick anticoagulant peptide (YNRLCIKPRDWIDECDSNEGGERAYFRNGKGGCDSFWICPEDHTGADYYSSYRDCFNACI; UniProt P17726 1-60, looked up) [TAP]
Ki (Factor Xa [2]): ~0.5 nM

Results, then the molecule that gave them:

Ki (human α-thrombin): > 15200 nM | Ki (human trypsin): > 10000 nM | Ki (Factor Xa [1]): 6 nM
Molecule: NC(=O)c1nn(-c2ccc3onc(N)c3c2)c2c(F)c(-c3ccc(N4CCOCC4=O)cn3)ccc12 [Example 43, 1-(3-Amino-benzo[d]isoxazol-5-yl)-7-fluoro-6-[5-(3-oxo-morpholin-4-yl)-pyridin-2-yl]-1H-indazole-3-carboxylic acid amide; methanesulfonic acid salt]

Ki (human α-thrombin): > 15200 nM | Ki (human trypsin): > 10000 nM | Ki (Factor Xa [1]): 5 nM
Molecule: CN(C)CCCN(c1ccncc1)c1ccc(-c2ccc3c(C(N)=O)nn(-c4ccc5onc(N)c5c4)c3c2F)c(F)c1 [Example 59, 1-(3-Amino-benzo[d]isoxazol-5-yl)-6-{4-[(3-dimethylamino-propyl)-pyridin-4-yl-amino]-2-fluoro-phenyl}-7-fluoro-1H-indazole-3-carboxamide dimesylate salt]

Ki (human α-thrombin): > 15200 nM | Ki (human trypsin): > 10000 nM | Ki (Factor Xa [1]): 2 nM
Molecule: CN(C)Cc1cnccc1-c1ccc(-c2ccc3c(C(N)=O)nn(-c4ccc5onc(N)c5c4)c3c2F)c(F)c1 [Example 66, 1-(3-Amino-benzo[d]isoxazol-5-yl)-6-[4-(3-dimethylaminomethyl-pyridin-4-yl)-2-fluoro-phenyl]-7-fluoro-1H-indazole-3-carboxylic acid amide]

Ki (human α-thrombin): 1600 nM | Ki (human trypsin): 140 nM | Ki (Factor Xa [1]): 1 nM
Molecule: Cc1nn(-c2cccc(C(=N)N)c2)c2c(F)c(-c3ccc(N4CCCCC4=O)cc3F)ccc12 [Example 75, 3-{7-Fluoro-6-[2-fluoro-4-(2-oxo-piperidin-1-yl)-phenyl]-3-methyl-indazol-1-yl}-benzamidine]

Ki (human α-thrombin): > 15200 nM | Ki (human trypsin): 1500 nM | Ki (Factor Xa [1]): 45 nM
Molecule: Cc1nn(-c2cccc(CN)c2)c2c(F)c(-c3ccc(-c4ccccc4S(C)(=O)=O)cc3F)ccc12 [Example 82, 3-[7-Fluoro-6-(3-fluoro-2′-methanesulfonyl-biphenyl-4-yl)-3-methyl-indazol-1-yl]-benzylamine]

Ki (human α-thrombin): > 15200 nM | Ki (human trypsin): > 10000 nM | Ki (Factor Xa [1]): 48 nM
Molecule: Cc1nn(-c2ccc3onc(N)c3c2)c2c(F)c(-c3ccc(N4CCCCC4=O)cc3)ccc12 [Example 86, 1-{4-[1-(3-Amino-benzo[d]isoxazol-5-yl)-7-fluoro-3-methyl-1H-indazol-6-yl]-phenyl}-piperidin-2-one]

Ki (human α-thrombin): > 15200 nM | Ki (human trypsin): > 10000 nM | Ki (Factor Xa [1]): 46 nM
Molecule: Cc1nn(-c2ccc3ccnc(N)c3c2)c2c(F)c(-c3ccc(-c4ccccc4S(C)(=O)=O)cc3F)ccc12 [Example 93, 7-[7-Fluoro-6-(3-fluoro-2′-methanesulfonyl-biphenyl-4-yl)-3-methyl-indazol-1-yl]-isoquinolin-1-ylamine]

Ki (human α-thrombin): > 15200 nM | Ki (human trypsin): > 10000 nM | Ki (Factor Xa [1]): 340 nM
Molecule: O=C1CCCCN1c1ccc(-c2ccc3c(C(F)(F)F)nn(-c4cccc(Cl)c4)c3c2F)c(F)c1 [Example 95, 1-{4-[1-(3-Chloro-phenyl)-7-fluoro-3-trifluoromethyl-1H-indazol-6-yl]-3-fluoro-phenyl}-piperidin-2-one]
